These results are taken from PMC5218480 (PLoS ONE, 2017).

The test system of the assay is MV-4-11 cells. The assay can be described thus: Gene expression microarray analysis (Affymetrix PrimeView) and GSEA. In kind it is cell-based, human. Also on record: RFU PODN (11730768_x_at) / Fold change /veh PODN (11730768_x_at) / RFU LINC00158 (11744669_a_at) / Fold change /veh LINC00158 (11744669_a_at) / RFU DUSP10 (11751237_a_at) / Fold change /veh DUSP10 (11751237_a_at) / RFU ID3 (11757404_x_at) / Fold change /veh ID3 (11757404_x_at) / RFU PLEKHG5 (11737974_s_at) / Fold change /veh PLEKHG5 (11737974_s_at) / RFU LRRC4B (11730491_at) / Fold change /veh LRRC4B (11730491_at) / RFU GIMAP4 (11747438_a_at) / Fold change /veh GIMAP4 (11747438_a_at) / RFU KRT8 (11758183_x_at) / Fold change /veh KRT8 (11758183_x_at) / RFU CNN1 (11734310_a_at) / Fold change /veh CNN1 (11734310_a_at) / RFU VPS37D (11726825_at) / Fold change /veh VPS37D (11726825_at) / RFU C10orf10 (11716522_x_at) / Fold change /veh C10orf10 (11716522_x_at) / RFU KIR2DL2 /// KIR2DL4 /// KIR2DL5A /// KIR2DL5B /// KIR2DS1 /// KIR2DS2 /// KIR2DS3 /// KIR2DS4 /// KIR3DL3 /// KIR3DL3 /// KIR3DS1 (11738374_at) / Fold change /veh KIR2DL2 /// KIR2DL4 /// KIR2DL5A /// KIR2DL5B /// KIR2DS1 /// KIR2DS2 /// KIR2DS3 /// KIR2DS4 /// KIR3DL3 /// KIR3DL3 /// KIR3DS1 (11738374_at) / RFU C1QL1 (11718748_at) / Fold change /veh C1QL1 (11718748_at) / RFU TMPRSS4 (11747572_a_at) / Fold change /veh TMPRSS4 (11747572_a_at) / RFU HAMP (11756126_x_at) / Fold change /veh HAMP (11756126_x_at) / RFU RNFT2 (11725882_a_at) / Fold change /veh RNFT2 (11725882_a_at) / RFU NR4A2 (11747474_a_at) / Fold change /veh NR4A2 (11747474_a_at) / RFU ABCC12 (11746883_a_at) / Fold change /veh ABCC12 (11746883_a_at) / RFU TMEM136 (11760407_x_at) / Fold change /veh TMEM136 (11760407_x_at) / RFU CLDN22 /// WWC2 (11732394_at) / Fold change /veh CLDN22 /// WWC2 (11732394_at) / RFU HLA-DPB1 (11760878_x_at) / Fold change /veh HLA-DPB1 (11760878_x_at) / RFU SPINT1 (11716480_a_at) / Fold change /veh SPINT1 (11716480_a_at) / RFU GAP43 (11754022_s_at) / Fold change /veh GAP43 (11754022_s_at) / RFU A4GNT (11735810_at) / Fold change /veh A4GNT (11735810_at) / RFU PRB3 (11715151_x_at) / Fold change /veh PRB3 (11715151_x_at) / RFU TUBB4B (11761932_at) / Fold change /veh TUBB4B (11761932_at) / RFU CAPN14 (11732068_a_at) / Fold change /veh CAPN14 (11732068_a_at) / RFU TMCC2 (11721928_a_at) / Fold change /veh TMCC2 (11721928_a_at) / RFU IRGQ (11745062_a_at) / Fold change /veh IRGQ (11745062_a_at) / RFU FAM174B (11720279_a_at) / Fold change /veh FAM174B (11720279_a_at) / RFU TMPRSS4 (11748680_a_at) / Fold change /veh TMPRSS4 (11748680_a_at) / RFU FAM212B (11763350_a_at) / Fold change /veh FAM212B (11763350_a_at) / RFU PLEKHG5 (11743358_a_at) / Fold change /veh PLEKHG5 (11743358_a_at) / RFU ZSCAN30 (11745921_a_at) / Fold change /veh ZSCAN30 (11745921_a_at) / RFU CMKLR1 (11741424_a_at) / Fold change /veh CMKLR1 (11741424_a_at) / RFU LOC101060620 /// MAPK8IP1 (11723275_at) / Fold change /veh LOC101060620 /// MAPK8IP1 (11723275_at) / RFU SPTSSB (11747773_x_at) / Fold change /veh SPTSSB (11747773_x_at) / RFU PRSS12 (11739890_at) / Fold change /veh PRSS12 (11739890_at) / RFU BIN1 (11741810_x_at) / Fold change /veh BIN1 (11741810_x_at) / RFU WNT11 (11732464_a_at) / Fold change /veh WNT11 (11732464_a_at) / RFU C10orf10 (11716521_a_at) / Fold change /veh C10orf10 (11716521_a_at) / RFU C5orf56 (11738089_at) / Fold change /veh C5orf56 (11738089_at) / RFU CYB561 (11721691_x_at) / Fold change /veh CYB561 (11721691_x_at) / RFU ANKRD19P (11752326_a_at) / Fold change /veh ANKRD19P (11752326_a_at) / RFU OR2T12 /// OR2T33 /// OR2T8 (11738714_s_at) / Fold change /veh OR2T12 /// OR2T33 /// OR2T8 (11738714_s_at) / RFU VCAN (11748164_a_at) / Fold change /veh VCAN (11748164_a_at) / RFU JSRP1 (11732532_at) / Fold change /veh JSRP1 (11732532_at) / RFU KRTAP10-11 (11738290_x_at) / Fold change /veh KRTAP10-11 (11738290_x_at) / RFU MYO3A (11730013_a_at) / Fold change /veh MYO3A (11730013_a_at) / RFU EBF3 (11725865_a_at) / Fold change /veh EBF3 (11725865_a_at) / RFU CAMK2N1 (11719241_x_at) / Fold change /veh CAMK2N1 (11719241_x_at) / RFU C5orf56 (11738088_a_at) / Fold change /veh C5orf56 (11738088_a_at) / RFU OLFML3 (11715873_a_at) / Fold change /veh OLFML3 (11715873_a_at) / RFU LOC100653217 /// NTM (11731650_a_at) / Fold change /veh LOC100653217 /// NTM (11731650_a_at) / RFU MAPK11 (11762145_a_at) / Fold change /veh MAPK11 (11762145_a_at) / RFU FIZ1 (11724087_x_at) / Fold change /veh FIZ1 (11724087_x_at) / RFU OASL (11726364_x_at) / Fold change /veh OASL (11726364_x_at) / RFU SOX15 (11748057_x_at) / Fold change /veh SOX15 (11748057_x_at) / RFU CD79A (11719716_a_at) / Fold change /veh CD79A (11719716_a_at) / RFU HIST1H1D (11736915_at) / Fold change /veh HIST1H1D (11736915_at) / RFU CASKIN2 (11723855_a_at) / Fold change /veh CASKIN2 (11723855_a_at) / RFU LOC730098 (11760151_x_at) / Fold change /veh LOC730098 (11760151_x_at) / RFU OR4N2 (11742367_at) / Fold change /veh OR4N2 (11742367_at) / RFU PRRT2 (11749266_a_at) / Fold change /veh PRRT2 (11749266_a_at) / RFU SNX32 (11753110_a_at) / Fold change /veh SNX32 (11753110_a_at) / RFU CDHR5 (11726645_a_at) / Fold change /veh CDHR5 (11726645_a_at) / RFU RCAN1 (11760418_a_at) / Fold change /veh RCAN1 (11760418_a_at) / RFU FAM167A (11723789_a_at) / Fold change /veh FAM167A (11723789_a_at) / RFU FAM26E (11764081_at) / Fold change /veh FAM26E (11764081_at) / RFU ISYNA1 (11749810_s_at) / Fold change /veh ISYNA1 (11749810_s_at) / RFU ACY1 (11761880_at) / Fold change /veh ACY1 (11761880_at) / RFU 11764098_at / Fold change /veh 11764098_at / RFU SAMD14 (11745864_x_at) / Fold change /veh SAMD14 (11745864_x_at) / RFU NPB (11741838_a_at) / Fold change /veh NPB (11741838_a_at) / RFU TMPRSS6 (11731388_a_at) / Fold change /veh TMPRSS6 (11731388_a_at) / RFU KRTAP10-2 (11738614_at) / Fold change /veh KRTAP10-2 (11738614_at) / RFU ARHGAP8 /// PRR5-ARHGAP8 (11727945_x_at) / Fold change /veh ARHGAP8 /// PRR5-ARHGAP8 (11727945_x_at) / RFU KRTAP5-7 /// NADSYN1 (11734609_at) / Fold change /veh KRTAP5-7 /// NADSYN1 (11734609_at) / RFU RASL12 (11751679_a_at) / Fold change /veh RASL12 (11751679_a_at) / RFU CDKN2B (11736163_a_at) / Fold change /veh CDKN2B (11736163_a_at) / RFU PRF1 (11729649_at) / Fold change /veh PRF1 (11729649_at) / RFU, ZNF638 /// ZNF638-IT1 / Fold change vs veh, ZNF638 /// ZNF638-IT1 / RFU, PANK3 / Fold change vs veh, PANK3 / RFU, SH3YL1 / Fold change vs veh, SH3YL1 / RFU, ZEB2 / Fold change vs veh, ZEB2 / RFU, NRIP1 / Fold change vs veh, NRIP1 / RFU, PTTG1IP / Fold change vs veh, PTTG1IP / RFU, CAPN2 / Fold change vs veh, CAPN2 / RFU, MED14 / Fold change vs veh, MED14 / RFU, SNORA58 / Fold change vs veh, SNORA58 / RFU, C1orf63 / Fold change vs veh, C1orf63 / RFU, LRRFIP1 / Fold change vs veh, LRRFIP1 / RFU, NDUFAF7 / Fold change vs veh, NDUFAF7 / RFU, SLC12A2 / Fold change vs veh, SLC12A2 / RFU, IBTK / Fold change vs veh, IBTK / RFU, ESF1 / Fold change vs veh, ESF1 / Fold change vs veh, TMEM50B / RFU, TAOK1 / Fold change vs veh, TAOK1 / RFU, ACBD3 / Fold change vs veh, ACBD3 / RFU, TMA16 / Fold change vs veh, TMA16 / RFU, RWDD3 / Fold change vs veh, RWDD3 / RFU, BCAT1 / Fold change vs veh, BCAT1 / RFU, EDEM3 / Fold change vs veh, EDEM3 / RFU, TMEM33 / Fold change vs veh, TMEM33 / RFU, WDR75 / Fold change vs veh, WDR75 / RFU, AHCTF1 / Fold change vs veh, AHCTF1 / RFU, TFRC / Fold change vs veh, TFRC / RFU, ZDHHC17 / Fold change vs veh, ZDHHC17 / RFU, NOM1 / Fold change vs veh, NOM1 / RFU, ARL8B / Fold change vs veh, ARL8B / RFU, ZBTB11 / Fold change vs veh, ZBTB11 / RFU, TAMM41 / Fold change vs veh, TAMM41 / RFU, KIAA1704 /// LOC100996395 / Fold change vs veh, KIAA1704 /// LOC100996395 / RFU, ING1 / Fold change vs veh, ING1 / RFU, TRMT61B / Fold change vs veh, TRMT61B / RFU, FUBP3 / Fold change vs veh, FUBP3 / RFU, TP53 / Fold change vs veh, TP53 / RFU, TNKS2 / Fold change vs veh, TNKS2 / RFU, ZFP14 / Fold change vs veh, ZFP14 / RFU, ACTR2 / Fold change vs veh, ACTR2 / RFU, PPP3R1 / Fold change vs veh, PPP3R1 / RFU, PIK3R1 / Fold change vs veh, PIK3R1 / RFU, HNRNPA1 / Fold change vs veh, HNRNPA1 / RFU, RNF170 / Fold change vs veh, RNF170 / RFU, ZNF28 / Fold change vs veh, ZNF28 / RFU, RNGTT / Fold change vs veh, RNGTT / RFU, OGT / Fold change vs veh, OGT / RFU, BRD1 / Fold change vs veh, BRD1 / RFU, MARS / Fold change vs veh, MARS / RFU, ZNF655 / Fold change vs veh, ZNF655 / RFU, FAHD1 / Fold change vs veh, FAHD1 / RFU, BDP1 / Fold change vs veh, BDP1 / RFU, LRRCC1 / Fold change vs veh, LRRCC1 / RFU, ARID1A / Fold change vs veh, ARID1A / RFU, ZNF146 / Fold change vs veh, ZNF146 / RFU, ZNF330 / Fold change vs veh, ZNF330 / RFU, GPN3 / Fold change vs veh, GPN3 / RFU, C9orf123 / Fold change vs veh, C9orf123 / RFU, N4BP2L2 / Fold change vs veh, N4BP2L2 / RFU, ARFIP1 / Fold change vs veh, ARFIP1 / RFU, FAM179B / Fold change vs veh, FAM179B / RFU, BCL10 / Fold change vs veh, BCL10 / RFU, UHRF1BP1L / Fold change vs veh, UHRF1BP1L / RFU, BET1 / Fold change vs veh, BET1 / RFU, CNOT2 / Fold change vs veh, CNOT2 / RFU, ZNF268 / Fold change vs veh, ZNF268 / Fold change vs veh, ZNF507 / RFU, DGCR2 / Fold change vs veh, DGCR2 / RFU, WDSUB1 / Fold change vs veh, WDSUB1 / Fold change vs veh, HSP90B1 /// MIR3652 / RFU, ADSS / Fold change vs veh, ADSS / RFU, GK / Fold change vs veh, GK / RFU, ZNF148 / Fold change vs veh, ZNF148 / RFU, TAF9 / Fold change vs veh, TAF9 / RFU, SLC1A5 / Fold change vs veh, SLC1A5 / RFU, SLMO2 / Fold change vs veh, SLMO2 / RFU, ABCC4 / Fold change vs veh, ABCC4 / RFU, LOC101060439 /// RAP1B / Fold change vs veh, LOC101060439 /// RAP1B / RFU, RFX7 / Fold change vs veh, RFX7 / RFU, GTPBP10 / Fold change vs veh, GTPBP10 / RFU, CNEP1R1 / Fold change vs veh, CNEP1R1 / RFU, BIVM-ERCC5 /// ERCC5 / Fold change vs veh, BIVM-ERCC5 /// ERCC5 / RFU, ILF3 / Fold change vs veh, ILF3 / RFU 11762660_at / Fold change /veh 11762660_at / RFU VCAN (11757783_s_at) / Fold change /veh VCAN (11757783_s_at) / RFU DDX43 (11728927_at) / Fold change /veh DDX43 (11728927_at) / RFU KRT8 (11758188_x_at) / Fold change /veh KRT8 (11758188_x_at) / RFU NKD1 (11759106_at) / Fold change /veh NKD1 (11759106_at) / RFU SRD5A1 (11742802_a_at) / Fold change /veh SRD5A1 (11742802_a_at) / RFU TPSAB1 /// TPSB2 (11721975_s_at) / Fold change /veh TPSAB1 /// TPSB2 (11721975_s_at) / RFU GSTM3 (11746129_a_at) / Fold change /veh GSTM3 (11746129_a_at) / RFU IL23R (11737362_x_at) / Fold change /veh IL23R (11737362_x_at) / RFU TMEM51 (11727254_a_at) / Fold change /veh TMEM51 (11727254_a_at) / RFU PIWIL2 (11732686_x_at) / Fold change /veh PIWIL2 (11732686_x_at) / RFU ORM1 (11744905_x_at) / Fold change /veh ORM1 (11744905_x_at) / RFU CCDC152 (11743942_at) / Fold change /veh CCDC152 (11743942_at) / RFU ECM1 (11717891_a_at) / Fold change /veh ECM1 (11717891_a_at) / RFU IL23R (11748794_a_at) / Fold change /veh IL23R (11748794_a_at) / RFU TNFAIP8L3 (11732012_x_at) / Fold change /veh TNFAIP8L3 (11732012_x_at) / RFU MBOAT4 (11741988_at) / Fold change /veh MBOAT4 (11741988_at) / RFU 11764193_at / Fold change /veh 11764193_at / RFU TMEM53 (11763286_at) / Fold change /veh TMEM53 (11763286_at) / RFU MAGEB2 (11727129_at) / Fold change /veh MAGEB2 (11727129_at) / RFU TMEM200A (11744735_a_at) / Fold change /veh TMEM200A (11744735_a_at) / RFU CCDC152 (11751479_a_at) / Fold change /veh CCDC152 (11751479_a_at) / RFU FAM211A (11726209_a_at) / Fold change /veh FAM211A (11726209_a_at) / RFU RGS16 (11746705_a_at) / Fold change /veh RGS16 (11746705_a_at) / RFU VCAN (11755009_s_at) / Fold change /veh VCAN (11755009_s_at) / RFU RHOB (11743442_s_at) / Fold change /veh RHOB (11743442_s_at) / RFU RGS16 (11720943_a_at) / Fold change /veh RGS16 (11720943_a_at) / RFU RGS16 (11720944_at) / Fold change /veh RGS16 (11720944_at) / RFU, VPS4B / Fold change vs veh, VPS4B / RFU, CREB1 / Fold change vs veh, CREB1 / RFU, DNAJC13 / Fold change vs veh, DNAJC13 / RFU, GNAQ / Fold change vs veh, GNAQ / RFU, CDK5R1 / Fold change vs veh, CDK5R1 / RFU, ZRANB3 / Fold change vs veh, ZRANB3 / RFU, CUL4A / Fold change vs veh, CUL4A / RFU, CCNY / Fold change vs veh, CCNY / RFU, UFL1 / Fold change vs veh, UFL1 / RFU, COG3 / Fold change vs veh, COG3 / RFU, DIAPH2 / Fold change vs veh, DIAPH2 / RFU, SKA2 / Fold change vs veh, SKA2 / RFU, AFF3 / Fold change vs veh, AFF3 / RFU, LMF1 / Fold change vs veh, LMF1 / RFU, IPO11 / Fold change vs veh, IPO11 / RFU, DFFB / Fold change vs veh, DFFB / RFU, FOXP1 / Fold change vs veh, FOXP1 / RFU, CARD8 / Fold change vs veh, CARD8 / RFU, STRN3 / Fold change vs veh, STRN3 / RFU, ADK / Fold change vs veh, ADK / RFU, RASSF2 / Fold change vs veh, RASSF2 / RFU, WIPF1 / Fold change vs veh, WIPF1 / RFU, LARP1B / Fold change vs veh, LARP1B / RFU, RASA1 / Fold change vs veh, RASA1 / RFU, RB1 / Fold change vs veh, RB1 / RFU, PPFIA1 / Fold change vs veh, PPFIA1 / RFU, MAT2A / Fold change vs veh, MAT2A / RFU, CCT5 / Fold change vs veh, CCT5 / RFU, WDR92 / Fold change vs veh, WDR92 / RFU, CUX1 / Fold change vs veh, CUX1 / RFU, TTC7A / Fold change vs veh, TTC7A / RFU, TMEM135 / Fold change vs veh, TMEM135 / RFU, DEPTOR / Fold change vs veh, DEPTOR / RFU, CPM / Fold change vs veh, CPM / RFU, DNAJB6 / Fold change vs veh, DNAJB6 / RFU, CACNA2D3 / Fold change vs veh, CACNA2D3 / RFU, DTX4 / Fold change vs veh, DTX4 / RFU, TFCP2 / Fold change vs veh, TFCP2 / RFU, GMCL1 /// GMCL1P1 / Fold change vs veh, GMCL1 /// GMCL1P1 / RFU, AEBP2 / Fold change vs veh, AEBP2 / RFU, SNHG1 /// SNORD22 /// SNORD25 /// SNORD26 /// SNORD27 /// SNORD28 /// SNORD29 /// SNORD31 / Fold change vs veh, SNHG1 /// SNORD22 /// SNORD25 /// SNORD26 /// SNORD27 /// SNORD28 /// SNORD29 /// SNORD31 / Fold change (Aza/veh), C12orf56 (ProbeSet 11735607_a_at) / Fold change (ACY-1035/veh), C12orf56 (ProbeSet 11735607_a_at) / Fold change (Aza/veh), FGFR1OP (ProbeSet 11751329_s_at) / Fold change (ACY-1035/veh), FGFR1OP (ProbeSet 11751329_s_at) / Fold change (Aza/veh), VPS36 (ProbeSet 11739960_a_at) / Fold change (ACY-1035/veh), VPS36 (ProbeSet 11739960_a_at) / RFU SYPL1 (11715823_x_at) / Fold change /veh SYPL1 (11715823_x_at) / RFU IGFBP7 (11715501_s_at) / Fold change /veh IGFBP7 (11715501_s_at) / RFU REEP3 (11722064_at) / Fold change /veh REEP3 (11722064_at) / RFU IGLL1 (11728026_x_at) / Fold change /veh IGLL1 (11728026_x_at): dose or concentration left out as unconfirmed. The note with it: MV-4-11 cells, 48 hours.

As for `Nc1ncn([C@@H]2O[C@H](CO)[C@@H](O)[C@H]2O)c(=O)n1` [azacitidine], the “RFU RGS16 (11720944_at)” value is given as 63.78 RFU.
